# pIC50: −log10 of the molar value.
# Assays:
# Protein binding = format: in vitro ADME
# Molt-4 cells = test: Proliferation of Molt-4 cells (Cell Titer-Glo); details: Homo sapiens, T cells, outcome-based, read-out: IC50 Proliferation Molt-4 cells (ALL)
# Solubility, turbidity = format: physicochemical; details: kinetic from dmso stock
# Daudi cells = test: Proliferation of Daudi cells (Cell Titer-Glo, 96 h); details: Homo sapiens, B cells, outcome-based, read-out: IC50 Proliferation Daudi cells (Burkitt's Lymphoma)
# Procedure: Growth inhibitory activity against the human tumor cell lines, RS4; 11 and Daudi was determined using Promega's Cell Titer-Glo® assay. The human tumor cells were placed in a 96-well microculture plate (Costar white, flat bottom #3917) in a total volume of 90 μL/well. After 24 hours of incubation in a humidified incubator at 37° C. with 5% CO2 and 95% air, […] serially diluted test agents in growth medium were added to each well. After 96 total hours of culture in a CO2 incubator, the plated cells and Cell Titer-Glo® (Promega # G7571) reagents were brought to room temperature to equilibrate for 30 minutes. 100 μL of Cell Titer-Glo® reagent was added to each well. The plate was shaken for 2 minutes and then left to equilibrate for 10 minutes before reading luminescence on the Tecan GENios microplate reader.
# Percent inhibition of cell growth was calculated relative to untreated control wells. All tests were performed in duplicate at each concentration level. The IC50 value for the test agents was estimated using Prism 3.03 by curve-fitting the data using the following four parameter-logistic equation: […]
# [1] = system: NF-kB pathway, THP-1 cells; test: NFkB-NFkB-bla THP-1 screen; details: Homo sapiens, read-out: IC50 Cell-based selectivity: NF-kB pathway THP-1 cells
# Procedure: (§1) Mechanism-based inhibition assays using compound 7A (Table 1) were performed using GeneBLAzer® Technology (Invitrogen Corporation), according to manufacturer specifications. Briefly, GeneBLAzer® Technology uses a mammalian-optimized Beta-lactamase reporter gene (bla) combined with a FRET-enabled substrate to provide reliable and sensitive detection in intact cells. Cells were loaded with an engineered fluorescent substrate containing two fluorophores, coumarin and fluorescein. Without bla expression, the substrate molecule remains intact. In this state, excitation of the coumarin results in fluorescence resonance energy transfer to the fluorescein moiety and emission of green light. But when bla is expressed, the substrate is cleaved, the fluorophores are separated, and energy transfer is disrupted. Excitation of the coumarin in the presence of Beta-lactamase activity results in a blue fluorescence signal. […]
# (§2) General Activator Assay Protocol • 1. […] The assay, plate was read on a fluorescence plate reader (Tecan Safire^2) and the data is analyzed.
# NFkB-bla THP-1 cells were thawed and resuspended in Assay Media (RPMI, 10% dialyzed FBS, 0.1 mM NEAA, 1 mM Sodium Pyruvate, 100 U/mL/100 μg/mL Pen/Strep) to a concentration of 625,000 cells/mL. […] The plate was read on a fluorescence plate reader.
# [2] = 6-day maximum tolerated dose safety study in female ICR nude mice; format: in vivo
# Procedure: Compounds of the invention are safe for administration. For example, excellent safety data was obtained in a 6-day maximum tolerated dose study at 100 mg/kg and 300 mg/kg of compound 7A, PO administered to six to eight-week old female ICR nude mice.
# RL cells = test: Proliferation of RL cells (Cell Titer-Glo); details: Homo sapiens, B cells, outcome-based, read-out: IC50 Proliferation RL cells (Non-Hodjkin lymphoma)
# JAK2 pathway, TF-1 cells = test: JAK2/STAT5-irf1-bla TF1 screen; details: Homo sapiens, read-out: IC50 Cell-based selectivity: JAK2 pathway TF-1 cells
# Procedure: as §1, §2
# irf1-bla TF1 cells were thawed and resuspended in Assay Media (OPTI-MEM, 0.5% dialyzed FBS, 0.1 mM NEAA, 1 mM Sodium Pyruvate, 100 U/mL/100 μg/mL Pen/Strep) to a concentration of 1,562,500 cells/mL. […] The plate is read on a fluorescence plate reader.
# [3] = 100 mg/kg and 300 mg/kg PO, 6-day study, female ICR nude mice
compound,measurement,setting,value
"O=C(CN1CCOCC1)Nc1cccc(-c2nc(-c3c[nH]c(C(=O)N4CCCC4)c3)cs2)c1 [7A, 2-morpholino-N-(3-(4-(5-(pyrrolidine-1-carbonyl)-1H-pyrrol-3-yl)thiazol-2-yl)phenyl)acetamide]",fraction unbound,Protein binding,0.02
same,pIC50,Molt-4 cells,4.46
same,solubility,"Solubility, turbidity",60 to 80 µM
same,pIC50,Daudi cells,6.80
same,pIC50,[1],4.39
same,change in food consumption,[2]; [3],no change in food consumption
same,clinical observation,[2]; [3],no abnormalities in clinical observation
same,necropsy (internal and external),[2]; [3],normal
same,weight loss,[2]; [3],no weight loss
same,Individual food consumption (g) Day 1,[2]; PO-High 300 mg/kg,4.45 g
same,Individual food consumption (g) Day 6,[2]; PO-High 300 mg/kg,5.13 g
same,Individual food consumption (g) Day 1,[2]; PO-Low 100 mg/kg,4.61 g
same,Individual food consumption (g) Day 6,[2]; PO-Low 100 mg/kg,5.44 g
same,pIC50,RL cells,4.59
same,pIC50,"JAK2 pathway, TF-1 cells",4.31

# Reference: patent publication US8937065B2, “Compositions and methods for modulating a kinase” (Clevexel Pharma, priority 2011, dated 2015)
